Source: paper PMC3433420 (PLoS ONE, 2012)
pKd: −log10 of the molar value. Residues, ends and D or L forms follow the SMILES beside them.

Tests used:
PIK3R1-N SH2 domain = target: T1, PIK3R1-N SH2 domain (Homo sapiens, UniProt P27986); test: biochemical; format: binding; details: protein PIK3R1-N; FP, high-confidence ErbB interactions; mean of replicate hits
T1 construct: thioredoxin; made in house; host or cells: E. coli BL21(DE3)pLysS

PIK3R3-C SH2 domain = target: T2, PIK3R3-C SH2 domain (Homo sapiens, UniProt Q92569); test: biochemical; format: binding; details: protein PIK3R3-C; FP, high-confidence ErbB interactions; mean of replicate hits
T2 construct: thioredoxin; made in house; host or cells: E. coli BL21(DE3)pLysS

[1] = target: T3, PIK3R3-NC tandem SH2 domains (Homo sapiens, UniProt Q92569); test: FP saturation binding assay; details: protein PIK3R3-NC; FP, high-confidence ErbB interactions; mean of replicate hits
T3 construct: the tandem protein was included in our analysis with all internal amino acids linking the domains; 6X His; thioredoxin; made in house; host or cells: E. coli BL21(DE3)pLysS
Procedure, shortened: (§1)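 Rhodamine-labeled peptides (10 nM final) were titrated with 12 SH2 domain concentrations (0.002–10 µM) in 20 mM HEPES, 100 mM KCl, 0.1% Tween-20, 5 mM DTT, pH 7.8. After 20 min at room temperature in the dark, FP (ex 530/em 555 nm) was read. KDs came from nonlinear least-squares fits.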

PIK3R3-N SH2 domain = target: T4, PIK3R3-N SH2 domain (Homo sapiens, UniProt Q92569); test: FP saturation binding assay; details: protein PIK3R3-N; FP, high-confidence ErbB interactions; mean of replicate hits
T4 construct: 6X His; thioredoxin; made in house; host or cells: E. coli BL21(DE3)pLysS
Procedure, shortened: as §1

PIK3R1-C SH2 domain = target: T5, PIK3R1-C SH2 domain (Homo sapiens, UniProt P27986); test: FP saturation binding assay; details: protein PIK3R1-C, high-confidence ErbB interactions, mean of replicate hits
T5 construct: 6X His; thioredoxin; made in house; host or cells: E. coli BL21(DE3)pLysS
T5 sequence (P27986 624-718 limits assumed): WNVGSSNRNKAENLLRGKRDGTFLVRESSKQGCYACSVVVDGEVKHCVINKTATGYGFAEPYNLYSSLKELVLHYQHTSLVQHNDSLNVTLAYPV
Procedure, shortened: as §1

[2] = target: T6, PIK3R1-NC tandem SH2 domains (Homo sapiens, UniProt P27986); test: FP saturation binding assay; details: protein PIK3R1-NC; FP, high-confidence ErbB interactions; mean of replicate hits
T6 construct: the tandem protein was included in our analysis with all internal amino acids linking the domains; 6X His; thioredoxin; made in house; host or cells: E. coli BL21(DE3)pLysS
T6 sequence (P27986 333-718 limits assumed): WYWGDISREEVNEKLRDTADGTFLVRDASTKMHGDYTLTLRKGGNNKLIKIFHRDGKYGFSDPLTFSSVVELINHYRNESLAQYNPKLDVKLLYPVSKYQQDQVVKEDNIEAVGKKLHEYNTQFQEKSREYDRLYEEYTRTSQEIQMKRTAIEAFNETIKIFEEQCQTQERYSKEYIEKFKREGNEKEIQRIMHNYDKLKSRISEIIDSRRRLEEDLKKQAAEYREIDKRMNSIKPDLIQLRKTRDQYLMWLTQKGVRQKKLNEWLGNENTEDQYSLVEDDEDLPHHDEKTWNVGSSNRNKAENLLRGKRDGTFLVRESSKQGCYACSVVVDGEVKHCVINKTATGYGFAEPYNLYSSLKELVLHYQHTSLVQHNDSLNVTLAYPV
Procedure, shortened: as §1

PIK3R2-N SH2 domain = PIK3R2-N SH2 domain (Homo sapiens, UniProt O00459); test: FP saturation binding assay
PIK3R2-N SH2 domain, sequence (O00459 330-425 limits assumed): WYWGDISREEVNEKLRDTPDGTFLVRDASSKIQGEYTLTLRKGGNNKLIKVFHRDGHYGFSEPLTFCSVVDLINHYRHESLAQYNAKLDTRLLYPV

PLCG1-C SH2 domain = target: T7, PLCG1-C SH2 domain (Homo sapiens, UniProt P19174); test: biochemical; format: binding; details: protein PLCG1-C; high-confidence ErbB interactions; mean of replicate hits
T7 construct: The 6X His-tagged SH2 domain proteins used in the assay, PLCG1-C, SHC4, VAV2; thioredoxin; made in house; host or cells: E. coli BL21(DE3)pLysS
T7 sequence (P19174 668-756 limits assumed): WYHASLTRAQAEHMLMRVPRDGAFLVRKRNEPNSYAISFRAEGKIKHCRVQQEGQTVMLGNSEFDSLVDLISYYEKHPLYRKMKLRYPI

RASA1-N SH2 domain = target: T8, RASA1-N SH2 domain (Homo sapiens, UniProt P20936); test: FP saturation binding assay
T8 sequence (P20936 181-272 limits assumed): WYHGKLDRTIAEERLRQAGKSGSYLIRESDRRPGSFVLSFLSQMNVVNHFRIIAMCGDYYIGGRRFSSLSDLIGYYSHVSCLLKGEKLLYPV

GRB7 SH2 domain = GRB7 SH2 domain (Homo sapiens, UniProt Q14451); test: FP saturation binding assay; details: Mean KD (μM), protein GRB7; FP, high-confidence ErbB interactions; mean of replicate hits
GRB7 SH2 domain, sequence (Q14451 431-527 limits assumed): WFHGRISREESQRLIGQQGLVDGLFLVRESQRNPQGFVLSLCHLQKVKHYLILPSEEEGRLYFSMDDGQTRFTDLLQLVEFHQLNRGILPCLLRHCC

[3] = target: PIK3R2-NC tandem SH2 domains (Homo sapiens, UniProt O00459); test: FP saturation binding assay
PIK3R2-NC tandem SH2 domains, sequence (O00459 330-716 limits assumed): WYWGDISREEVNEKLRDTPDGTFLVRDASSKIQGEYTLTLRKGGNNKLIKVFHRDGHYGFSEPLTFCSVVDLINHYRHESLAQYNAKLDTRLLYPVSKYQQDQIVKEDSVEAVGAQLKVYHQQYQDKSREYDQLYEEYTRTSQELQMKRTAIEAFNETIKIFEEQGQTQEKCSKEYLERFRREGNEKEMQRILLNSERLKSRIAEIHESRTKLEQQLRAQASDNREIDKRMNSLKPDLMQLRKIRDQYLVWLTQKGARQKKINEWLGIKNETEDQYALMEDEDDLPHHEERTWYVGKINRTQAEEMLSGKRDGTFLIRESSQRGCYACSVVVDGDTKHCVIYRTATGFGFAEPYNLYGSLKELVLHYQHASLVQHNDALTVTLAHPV

PTK6 SH2 domain = target: T9, PTK6 SH2 domain (Homo sapiens, UniProt Q13882); test: FP saturation binding assay; details: protein PTK6; high-confidence ErbB interactions; mean of replicate hits
T9 construct: from the PTK6 SH2 domain; 6X His; thioredoxin; made in house; host or cells: E. coli BL21(DE3)pLysS
T9 sequence (Q13882 78-170 limits assumed): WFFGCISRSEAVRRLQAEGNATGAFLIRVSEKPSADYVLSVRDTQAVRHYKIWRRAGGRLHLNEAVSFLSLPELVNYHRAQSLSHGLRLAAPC
Procedure, shortened: as §1

YES1 SH2 domain = target: T10, YES1 SH2 domain (Homo sapiens, UniProt P07947); test: FP saturation binding assay; details: protein YES1; high-confidence ErbB interactions; mean of replicate hits
T10 construct: 6X His; thioredoxin; made in house; host or cells: BL21(DE3)pLysS E. coli
T10 sequence (P07947 158-255 limits assumed): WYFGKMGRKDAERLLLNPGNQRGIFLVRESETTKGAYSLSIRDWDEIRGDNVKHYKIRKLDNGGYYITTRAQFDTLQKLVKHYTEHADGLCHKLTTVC
Procedure, shortened: as §1

TNS3 SH2 domain = target: T11, TNS3 SH2 domain (Homo sapiens, UniProt Q68CZ2); test: FP saturation binding assay; details: FP saturation assay; Tensin family SH2 domains
T11 sequence (Q68CZ2 1172-1282 limits assumed): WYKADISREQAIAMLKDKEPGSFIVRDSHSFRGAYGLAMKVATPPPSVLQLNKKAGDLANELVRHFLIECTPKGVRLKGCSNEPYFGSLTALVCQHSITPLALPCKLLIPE

TNS1 SH2 domain = target: T12, TNS1 SH2 domain (Homo sapiens, UniProt Q9HBL0); test: FP saturation binding assay; details: Tensin family SH2 domains
T12 sequence (Q9HBL0 1567-1676 limits assumed): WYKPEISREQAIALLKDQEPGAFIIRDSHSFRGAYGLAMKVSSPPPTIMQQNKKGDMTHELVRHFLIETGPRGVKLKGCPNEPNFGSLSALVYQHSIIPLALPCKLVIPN

TENC1 SH2 domain = test: FP saturation binding assay; details: Tensin family SH2 domains

T1 sequence (P27986 333-428 limits assumed): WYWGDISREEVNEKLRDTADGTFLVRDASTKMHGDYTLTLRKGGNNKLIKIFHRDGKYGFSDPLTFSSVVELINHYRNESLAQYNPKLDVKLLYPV

Molecule	pKd (PIK3R1-N SH2 domain)	pKd (PIK3R3-C SH2 domain)	pKd [1]	pKd (PIK3R3-N SH2 domain)	pKd (PIK3R1-C SH2 domain)	pKd [2]	pKd (PIK3R2-N SH2 domain)	pKd (PLCG1-C SH2 domain)	pKd (RASA1-N SH2 domain)	Kd (GRB7 SH2 domain) [µM]	pKd [3]	pKd (PTK6 SH2 domain)	pKd (YES1 SH2 domain)	affinity of recruitment of TNS3 (TNS3 SH2 domain)	affinity of recruitment of TNS1 (TNS1 SH2 domain)	affinity of recruitment of TENC1 (TENC1 SH2 domain)
CSCC[C@H](NC(=O)[C@H](C)NC(=O)[C@H](C)NC(=O)[C@H](Cc1ccc(OP(=O)(O)O)cc1)NC(=O)[C@H](CC(=O)O)NC(=O)CNC(=O)CNC(=O)[C@@H]1CCCN1)C(=O)NCC(=O)N[C@@H](C)C(=O)N[C@@H](CS)C(=O)N1CCC[C@H]1C(=O)N[C@@H](CC(=O)O)C(=O)O [ErbB3 1276 13-mer] (HELM PEPTIDE1{P.G.G.D.[O=C([C@H](Cc1ccc(OP(=O)(O)O)cc1)N[*:1])[*:2]].A.A.M.G.A.C.P.D}$$$$V2.0)	5.22	5.01	5.43	5.61	5.64	–	–	–	–	–	–	–	–	–	–	–
CSCC[C@H](NC(=O)[C@@H]1CCCN1C(=O)[C@@H](NC(=O)[C@H](Cc1ccc(OP(=O)(O)O)cc1)NC(=O)[C@H](C)NC(=O)[C@@H]1CCCN1C(=O)[C@@H]1CCCN1C(=O)[C@@H]1CCCN1)[C@@H](C)O)C(=O)N[C@@H](CO)C(=O)NCC(=O)N[C@@H](CC(N)=O)C(=O)N[C@@H](CCC(N)=O)C(=O)N[C@@H](CC(=O)O)C(=O)O [ErbB4 1056 13-mer] (HELM PEPTIDE1{P.P.P.A.[O=C([C@H](Cc1ccc(OP(=O)(O)O)cc1)N[*:1])[*:2]].T.P.M.S.G.N.Q.D}$$$$V2.0)	5.59	–	6.64	–	6.80	6.68	5.53	–	–	–	–	–	–	–	–	–
CC(C)C[C@H](NC(=O)[C@H](Cc1ccc(O)cc1)NC(=O)[C@H](CC(C)C)NC(=O)[C@@H]1CCCN1C(=O)[C@H](CCC(=O)O)NC(=O)[C@H](CC(N)=O)NC(=O)[C@@H](NC(=O)[C@H](Cc1ccc(OP(=O)(O)O)cc1)NC(=O)[C@H](CCC(=O)O)NC(=O)[C@H](CC(=O)O)NC(=O)[C@H](CCC(=O)O)NC(=O)[C@H](C)N)C(C)C)C(=O)N[C@@H](CC(=O)O)C(=O)O [ErbB4 1202 13-mer] (HELM PEPTIDE1{A.E.D.E.[O=C([C@H](Cc1ccc(OP(=O)(O)O)cc1)N[*:1])[*:2]].V.N.E.P.L.Y.L.D}$$$$V2.0)	5.87	–	5.54	5.73	–	5.81	–	5.81	5.84	2.06	5.30	5.92	5.79	–	–	–
LDEApYVMASVDNd [ErbB1 pY764]	–	–	–	–	–	–	–	–	–	–	–	–	–	relatively high affinity	relatively high affinity	relatively high affinity
